From ChEMBL document CHEMBL5390243, “Catecholamine Derivatives: Natural Occurrence, Structural Diversity, and Biological Activity” (J Nat Prod, 2023)
Values after ≈ are worked out from the molar mass of the structure shown.

Columns and labels:
[1] = target: Cyclin-dependent kinase 5/CDK5 activator 1 (Homo sapiens, UniProt Q00535); assay: Inhibition of N-terminal full length human recombinant CDK5/p25 expressed in baculovirus-infected Sf21 cells incubated for 60 mins in presence of ATP by kinase-glo luminescent assay
Bacillus subtilis [2] = assay: Antibacterial activity against Bacillus subtilis ATCC 6633 assessed as reduction in bacterial growth incubated for 18 to 24 hrs by broth microdilution method; assay type: functional, organism-based
[3] = target: Casein kinase I isoform delta (Homo sapiens, UniProt P48730); assay: Inhibition of N-terminal GST-tagged human recombinant CK1delta (1 to 294 residues) expressed in Escherichia coli incubated for 60 mins in presence of ATP by Kinase-glo luminescent assay
Bacillus subtilis [4] = assay: Antibacterial activity against Bacillus subtilis ATCC 6051 assessed as reduction in bacterial growth incubated for 18 to 24 hrs by broth microdilution method; assay type: functional, organism-based
[5] = target: Glycogen synthase kinase-3 beta (Homo sapiens, UniProt P49841); assay: Inhibition of N-terminal His6-tagged human recombinant GSK3beta expressed in baculovirus-infected Sf21 cells incubated for 60 mins in presence of ATP by ADP-glo analysis
[6] = Cytotoxicity against rat NRK-52E cells assessed as inhibition of cell growth incubated for 24 hrs by CCK-8 assay; assay type: toxicity, cell-based
Nakaseomyces glabratus = assay: Antifungal activity against Candida glabrata assessed as reduction in fungal growth incubated for 24 hrs by serial dilution method; assay type: functional
[7] = target: Delta-type opioid receptor (Homo sapiens, UniProt P41143); assay: Binding affinity to DOR (unknown origin) assessed as inhibition constant
Sequence of Delta-type opioid receptor (P41143 whole entry): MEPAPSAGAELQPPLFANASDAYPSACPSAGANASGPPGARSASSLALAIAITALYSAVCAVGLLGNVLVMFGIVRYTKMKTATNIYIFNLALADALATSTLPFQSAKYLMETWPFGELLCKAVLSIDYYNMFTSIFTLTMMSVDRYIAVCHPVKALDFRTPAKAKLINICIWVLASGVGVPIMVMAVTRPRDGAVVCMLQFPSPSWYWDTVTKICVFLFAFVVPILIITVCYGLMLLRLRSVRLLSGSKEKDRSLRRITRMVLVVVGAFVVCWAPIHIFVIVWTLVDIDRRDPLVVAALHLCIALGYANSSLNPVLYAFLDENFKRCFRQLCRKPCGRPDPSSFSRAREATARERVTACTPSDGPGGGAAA

Sequence of Cyclin-dependent kinase 5/CDK5 activator 1 (Q00535 whole entry): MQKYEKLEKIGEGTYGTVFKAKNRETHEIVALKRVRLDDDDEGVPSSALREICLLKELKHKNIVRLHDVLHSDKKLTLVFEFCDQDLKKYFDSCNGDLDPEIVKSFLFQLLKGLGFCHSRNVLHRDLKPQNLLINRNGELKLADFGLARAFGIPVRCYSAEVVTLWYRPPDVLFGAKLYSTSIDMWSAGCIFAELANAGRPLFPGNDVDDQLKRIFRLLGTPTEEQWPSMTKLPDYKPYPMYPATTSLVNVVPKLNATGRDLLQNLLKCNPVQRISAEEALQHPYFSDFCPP
Sequence of Cyclin-dependent kinase 5/CDK5 activator 1 (Q15078 whole entry, further chain): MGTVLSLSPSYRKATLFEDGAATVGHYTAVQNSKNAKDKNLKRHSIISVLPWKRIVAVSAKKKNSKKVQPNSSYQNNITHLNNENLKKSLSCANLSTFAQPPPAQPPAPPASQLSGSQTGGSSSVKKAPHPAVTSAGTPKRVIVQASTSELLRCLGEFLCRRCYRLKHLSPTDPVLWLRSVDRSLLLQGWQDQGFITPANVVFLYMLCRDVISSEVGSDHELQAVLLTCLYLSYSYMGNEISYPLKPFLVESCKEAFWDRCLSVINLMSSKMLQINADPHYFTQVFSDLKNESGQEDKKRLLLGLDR
Sequence of Casein kinase I isoform delta (P48730 whole entry, the tested form may be a part, canonical isoform): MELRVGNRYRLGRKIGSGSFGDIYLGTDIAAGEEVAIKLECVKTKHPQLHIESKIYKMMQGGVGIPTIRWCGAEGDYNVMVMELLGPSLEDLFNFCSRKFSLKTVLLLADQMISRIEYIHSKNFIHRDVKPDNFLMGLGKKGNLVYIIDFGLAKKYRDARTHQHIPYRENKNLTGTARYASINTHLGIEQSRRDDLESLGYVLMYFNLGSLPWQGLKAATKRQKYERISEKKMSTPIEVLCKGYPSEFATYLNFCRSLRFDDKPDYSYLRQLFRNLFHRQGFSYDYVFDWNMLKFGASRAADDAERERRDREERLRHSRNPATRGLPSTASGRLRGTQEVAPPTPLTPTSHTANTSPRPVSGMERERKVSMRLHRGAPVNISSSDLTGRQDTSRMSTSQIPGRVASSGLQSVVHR
Sequence of Glycogen synthase kinase-3 beta (P49841 whole entry): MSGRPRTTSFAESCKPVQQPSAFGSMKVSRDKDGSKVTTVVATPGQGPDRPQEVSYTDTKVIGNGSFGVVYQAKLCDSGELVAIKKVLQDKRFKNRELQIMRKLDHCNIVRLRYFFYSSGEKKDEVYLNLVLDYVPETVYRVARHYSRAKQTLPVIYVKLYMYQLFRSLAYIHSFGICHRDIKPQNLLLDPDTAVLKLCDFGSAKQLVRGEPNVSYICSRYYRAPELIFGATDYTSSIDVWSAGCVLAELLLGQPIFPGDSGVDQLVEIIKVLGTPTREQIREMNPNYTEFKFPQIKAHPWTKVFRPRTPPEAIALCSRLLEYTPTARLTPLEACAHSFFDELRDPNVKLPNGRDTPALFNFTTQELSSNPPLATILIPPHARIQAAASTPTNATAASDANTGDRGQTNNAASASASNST

O=C(O)c1[nH]c2c(=O)oc3cc(O)c(O)cc3c2c1-c1ccc(O)c(O)c1
IC50 [1]: 10.9 µM | IC50 (Bacillus subtilis [2]): 3.8 µM | IC50 [3]: 2.3 µM | IC50 (Bacillus subtilis [4]): 3 µM | IC50 [5]: 1.6 µM

CC(=O)NCCc1ccc2c(c1)O[C@]1(NC(C)=O)[C@H](O2)c2cc(O)c(O)cc2[C@@H](c2ccc(O)c(O)c2)[C@@H]1NC(C)=O
IC50 at 24 h [6]: 30 µM

C[C@H](N)[C@H](CCCCCCCCCCCC/C=C/C(O)CCCCCCC[C@@H]1NCCc2cc(O)c(O)cc21)O[C@@H]1O[C@@H](CO)[C@@H](O)[C@@H](O)[C@@H]1O (stereo partly drawn)
MIC (Nakaseomyces glabratus): 25 µg/mL (≈ 34.6 µM)

N=C(N)NCCCC1=NCCc2cc(O)c(O)cc21
Ki [7]: 0.485 µM
